The source of these data is patent publication US4301163A, “Amino-ether oxides and use thereof in therapy” (priority 1979, dated 1981).

The structures appear in SMILES notation.

For data set [1], the system named is rat duodenum. Briefly: Spasmolytic activity in vitro against barium chloride, isolated rat duodenum. To be noted: for Spasmolytic activity compared with papaverine hydrochloride / spasmolytic index/papaverine hydrochloride: rat duodenum; for Spasmolytic activity compared with papaverine hydrochloride: BaCl2 50 mg/l, relative EC50 comparison; for spasmolytic index/papaverine hydrochloride: relative index I from activity and relative toxicity, calculated in mmoles; for relative index of spasmolytic activity compared with papaverine: summary statement, times higher than the reference. As for the experimental part:
(§1) The spasmolytic activity of the products was studied in vitro with regard to two distinct agonists, namely:
(§2) The organ fragments were kept alive in a tank containing a solution of Tyrode (37° C., pH 7.2, oxygenated by the mixture O2 /CO2, 95%/5%).
(§3) The isotonic contractions were recorded graphically on a physiograph by means of a transducer. […] The values obtained are compared with those of spasmolytic agents selected as reference and are determined under the same experimental conditions, namely:
papaverine hydrochloride for the convulsant effect of barium chloride;

In data set [2] the test system is cornea of the rabbit. As to the kind of experiment: Local anaesthetic activity on contact, rabbit cornea (derived from Regnier). It counts as in vivo, rabbit (male albino). To be noted: for Local anaesthetic activity: effect compared with lidocaine: 1% solution, relative to lidocaine hydrochloride at identical concentration, rabbit cornea; for local anaesthesia/lidocaine hydrochloride index: relative index I from activity and relative toxicity, calculated in mmoles. The procedure:
The local anaesthetic activity on contact is determined on the cornea of the rabbit according to a method derived from the technique of Regnier (Regnier J. R. Salle P. Bull. Soc. Pharmacol. 1926 33, 91).
Male albino rabbits weighing 2 to 3 kg are used in groups of 5. The product solution to be tested is injected in a volume of 0.2 ml into the conjunctival sac. The cornea is then stimulated by means of a hair 3, 6, 10, 15, 20, 25, 45 and 60 minutes after injection.
The local anaesthetic activity is thus expressed in relation to this reference product.

Data set [3] relates to inflammation in the paw of the rat. Briefly: Analgesic activity, brewer's yeast paw inflammation pressure test (derived from Randall and Selito). It counts as in vivo, rat (male Sprague-Dawley). To be noted: 100 mg/kg oral, 1 hour after administration. The procedure:
The analgesic activity of the products was studied on male Sprague-Dawley rats in groups of 15 by a method derived from that of Randall and Selito (Arch. Int. Pharmacodyn. 1957 (III) page 409). This method consists in causing a painful inflammation in the paw of the rat by injecting 0.1 ml of a 20% brewer's yeast solution, then applying a pressure to the inflammation and determining the value of the pressure at which a painful reaction of the animal appears.
The activity of the products was studied after 1 hour of administration by oral route at the rate of one dose of 100 mg/kg in comparison with untreated animals. In this test aspirin was chosen as reference substance.
The analgesic effect of the products is expressed by the percentage increase of the pressure endured by the treated animals in relation to that endured by the untreated animals.
The results of the analgesic activity of the product tested are expressed in relation to the activity of aspirin administered by oral route at a dose of 100 mg/kg.

The subject of data set [4] is guinea-pig ileum. As to the kind of experiment: Spasmolytic activity in vitro against nicotine, isolated guinea-pig ileum. To be noted: for Spasmolytic activity compared with hexamethonium dibromide: nicotine 1 mg/l, relative EC50 comparison; for spasmolytic index/hexamethonium dibromide: relative index I from activity and relative toxicity, calculated in mmoles. As for the experimental part: as §1, §2, §3
hexamethonium dibromide for the convulsant effect of nicotine (table V).

Data set [5] in a line: in vivo. To be noted: mouse. As for the experimental part: The acute toxicity of the products of the invention was determined on groups of 20 Swiss OF1 mice weighing 22 to 24 grams by intravenous route.
Where [6] appears, read: reference substances, mice, intravenous.

What is called LD50 is the dose at which mortality reaches 50%. A high value points to lower toxicity. As for `CCC(COCc1ccc(OC)c(OC)c1)(c1ccccc1)N(C)C` (stereo not drawn) [Example 1, 1-[(3,4-dimethoxy)benzyloxymethyl]-1-phenyl-N,N-dimethyl-n-propylamine], in data set [1], the “Spasmolytic activity compared with papaverine hydrochloride” value stood at 2.7 and the spasmolytic index/papaverine hydrochloride is given as 2.45. Besides, in data set [2], the “Local anaesthetic activity: effect compared with lidocaine” value was determined as 1.6 and the “local anaesthesia/lidocaine hydrochloride index” value is recorded as 1.52. The “Analgesic activity in relation to aspirin” value (“Analgesic activity” for short) in data set [3] was determined as 1. Moreover, in data set [4], the “Spasmolytic activity compared with hexamethonium dibromide” value came to 0.9 and the spasmolytic index/hexamethonium dibromide is 1.29. This compound also registered a 50% lethal dose (LD50) at 192 h in data set [5] (iv) of 30 mg/kg.
In the case of `CCC(COCc1cc(OC)c(OC)c(OC)c1)(c1ccccc1)N(C)C` (stereo not drawn) [Example 2, 1-[(3,4,5-trimethoxy)benzyloxymethyl]-1-phenyl-N,N-dimethyl-n-propylamine], in data set [1], the “Spasmolytic activity compared with papaverine hydrochloride” value was 5.4, the spasmolytic index/papaverine hydrochloride is reported as 6.90 and the “relative index of spasmolytic activity compared with papaverine” value is reported as “up to seven”. In data set [2], the “Local anaesthetic activity: effect compared with lidocaine” value was 2.2 and the “local anaesthesia/lidocaine hydrochloride index” value is on record as 2.95. Besides, in data set [4], the “Spasmolytic activity compared with hexamethonium dibromide” value amounted to 1.2 and the spasmolytic index/hexamethonium dibromide is reported as 2.42. The same compound showed an LD50 at 192 h in data set [5] (iv) of 42 mg/kg.
As to `CCC(COCc1ccccc1)(c1ccccc1)N(C)C` (stereo not drawn) [Example 3, 1-Benzyloxymethyl-1-phenyl-N,N-dimethyl-n-propylamine], in data set [1], the “Spasmolytic activity compared with papaverine hydrochloride” value is 0.9 and the spasmolytic index/papaverine hydrochloride is listed as 1.125. Also, in data set [2], the “Local anaesthetic activity: effect compared with lidocaine” value is listed as 1.4 and the “local anaesthesia/lidocaine hydrochloride index” value was 1.85. Further, in data set [4], the “Spasmolytic activity compared with hexamethonium dibromide” value was found to be 3.4 and the spasmolytic index/hexamethonium dibromide is listed as 6.69. Also, in data set [5] (iv), the LD50 at 192 h is 41.4 mg/kg.
In data set [5] (iv), `CCCCOCC(CC)(c1ccccc1)N(C)C` (stereo not drawn) [Example 4] came in with an LD50 at 192 h of 26.8 mg/kg.
In the case of `CCCCCCCCCCOCC(CC)(c1ccccc1)N(C)C` (stereo not drawn) [Example 5], in data set [1], the “Spasmolytic activity compared with papaverine hydrochloride” value was found to be 0.5 and the spasmolytic index/papaverine hydrochloride is reported as 0.56. Moreover, in data set [3], the “Analgesic activity” value was 2.5. Further, in data set [4], the “Spasmolytic activity compared with hexamethonium dibromide” value came to 2.2 and the spasmolytic index/hexamethonium dibromide is listed as 3.85. Further, the LD50 at 192 h in data set [5] (iv) stood at 37 mg/kg.
For the compound `CCC(COCc1ccc(C)cc1)(c1ccccc1)N(C)C` (stereo not drawn) [Example 6], the 50% lethal dose (LD50) at 192 h in data set [5] (iv) is 48.6 mg/kg.
On to `CCC(COc1ccccn1)(c1ccccc1)N(C)C` (stereo not drawn) [Example 7], for which, in data set [1], the “Spasmolytic activity compared with papaverine hydrochloride” value is listed as 1.7 and the spasmolytic index/papaverine hydrochloride is recorded as 1.89. Also, in data set [2], the “Local anaesthetic activity: effect compared with lidocaine” value is on record as 1.1 and the “local anaesthesia/lidocaine hydrochloride index” value is recorded as 1.30. In data set [4], the “Spasmolytic activity compared with hexamethonium dibromide” value is 1.0 and the spasmolytic index/hexamethonium dibromide is 1.75. In addition, the median lethal dose (LD50) at 192 h in data set [5] (iv) came out at 37 mg/kg.
Regarding `CCC(COCc1ccccn1)(c1ccccc1)N(C)C` (stereo not drawn) [Example 9], in data set [1], the “Spasmolytic activity compared with papaverine hydrochloride” value is 0.4 and the spasmolytic index/papaverine hydrochloride was 0.475. Also, in data set [2], the “Local anaesthetic activity: effect compared with lidocaine” value stood at 0.7 and the “local anaesthesia/lidocaine hydrochloride index” value is given as 0.875. Moreover, in data set [4], the “Spasmolytic activity compared with hexamethonium dibromide” value was found to be 1.4 and the spasmolytic index/hexamethonium dibromide is on record as 2.62. The same compound showed a median lethal dose (LD50) at 192 h in data set [5] (iv) of 39 mg/kg.
Take `CCC(COCc1cccnc1)(c1ccccc1)N(C)C` (stereo not drawn) [Example 10]: in data set [1], the “Spasmolytic activity compared with papaverine hydrochloride” value amounted to 0.4 and the spasmolytic index/papaverine hydrochloride is reported as 0.525. In addition, the “Analgesic activity” value in data set [3] is recorded as 1.8. In data set [4], the “Spasmolytic activity compared with hexamethonium dibromide” value is 1.7 and the spasmolytic index/hexamethonium dibromide is listed as 3.50. In addition, in data set [5] (iv), the LD50 at 192 h came out at 43 mg/kg.
On to `CCC(CN(C)C)(OCc1cc(OC)c(OC)c(OC)c1)c1ccccc1` (stereo not drawn) [Example 11, 2-[(3,4,5-trimethoxy)benzyloxy]-2-phenyl-N,N-dimethyl-n-butylamine], for which, in data set [1], the “Spasmolytic activity compared with papaverine hydrochloride” value turned out to be 1.9 and the spasmolytic index/papaverine hydrochloride is listed as 2.69. In data set [2], the “Local anaesthetic activity: effect compared with lidocaine” value worked out at 1.0 and the “local anaesthesia/lidocaine hydrochloride index” value is recorded as 1.49. Also, the “Analgesic activity” value in data set [3] amounted to 2.3. Besides, in data set [4], the “Spasmolytic activity compared with hexamethonium dibromide” value came out at 2.6 and the spasmolytic index/hexamethonium dibromide is 5.76. For the same compound, the median lethal dose (LD50) at 192 h in data set [5] (iv) is 46.7 mg/kg.
In the case of `CCC(COCc1cc(OC)c(OC)c(OC)c1)(NC)c1ccccc1` (stereo not drawn) [Example 12, 1-[(3,4,5-trimethoxy)benzyloxymethyl]-1-phenyl-N-methyl-n-propylamine], in data set [1], the “Spasmolytic activity compared with papaverine hydrochloride” value came to 1.2 and the spasmolytic index/papaverine hydrochloride is 1.24. Also, in data set [2], the “Local anaesthetic activity: effect compared with lidocaine” value is recorded as 1.7 and the “local anaesthesia/lidocaine hydrochloride index” value is 1.84. In addition, in data set [4], the “Spasmolytic activity compared with hexamethonium dibromide” value is on record as 2.3 and the spasmolytic index/hexamethonium dibromide was 4.09. The 50% lethal dose (LD50) at 192 h in data set [5] (iv) was determined as 34 mg/kg.
In the case of `COc1ccc(C(C)(COCc2ccc(Cl)cc2)N(C)C)cc1` (stereo not drawn) [Example 13], in data set [2], the “Local anaesthetic activity: effect compared with lidocaine” value is reported as 1.1 and the “local anaesthesia/lidocaine hydrochloride index” value is recorded as 1.71. Further, the LD50 at 192 h in data set [5] (iv) came to 48.4 mg/kg.
With `Cc1ccc(COCC(C)(c2ccc(Cl)c(Cl)c2)N(C)C)cc1` (stereo not drawn) [Example 15], the LD50 at 192 h in data set [5] (iv) was 160 mg/kg.
The same measure, in the same setting: in the case of `COc1ccc(CC(C)(N)COCc2ccccc2)cc1OC` (stereo not drawn) [Example 17, 1-Benzyloxymethyl-1-methyl-(3,4-dimethoxy)-phenethyl-amine] it was 51.6 mg/kg.
`COc1ccc(CC(C)(COCc2ccccc2)N(C)C)cc1OC` (stereo not drawn) [Example 18] came in with a median lethal dose (LD50) at 192 h in data set [5] (iv) of 27.3 mg/kg.
On to `COc1ccc(CCC(C)(COCc2cc(OC)c(OC)c(OC)c2)N(C)C)cc1OC` (stereo not drawn) [Example 19], for which, in data set [2], the “Local anaesthetic activity: effect compared with lidocaine” value amounted to 0.95 and the “local anaesthesia/lidocaine hydrochloride index” value is 0.92. Further, in data set [5] (iv), the LD50 at 192 h is 30.7 mg/kg.
As for `CCC(COc1ccc(OC)cc1)(c1ccccc1)N(C)C` (stereo not drawn) [Example 21, 1-[(4-methoxy)phenoxymethyl]-1-phenyl-N,N-dimethyl-n-propylamine], in data set [1], the “Spasmolytic activity compared with papaverine hydrochloride” value was determined as 1.7, the spasmolytic index/papaverine hydrochloride is recorded as 7.28 and the “relative index of spasmolytic activity compared with papaverine” value was “up to seven”. In addition, in data set [2], the “Local anaesthetic activity: effect compared with lidocaine” value was found to be 0.45 and the “local anaesthesia/lidocaine hydrochloride index” value is 2.00. In addition, in data set [4], the “Spasmolytic activity compared with hexamethonium dibromide” value amounted to 1.7 and the spasmolytic index/hexamethonium dibromide is given as 11.33. In data set [5] (iv), this compound returned a 50% lethal dose (LD50) at 192 h of 140 mg/kg.
Take `CCC(CN(C)C)(Oc1ccc(OC)cc1)c1ccccc1` (stereo not drawn) [Example 22, 2-[(4-methoxy)phenoxy]-2-phenyl-N,N-dimethyl-n-butylamine]: the LD50 at 192 h in data set [5] (iv) was 59.6 mg/kg.
`CC(=O)Oc1ccccc1C(=O)O` [aspirin, reference compound]: the “Analgesic activity” value in data set [3] was found to be 1.
With `C[N+](C)(C)CCCCCC[N+](C)(C)C` [hexamethonium, reference compound], in data set [5] (setting [6]), the 50% lethal dose (LD50) at 192 h was 21 mg/kg.
In data set [5] (setting [6]), `COc1ccc(Cc2nccc3cc(OC)c(OC)cc23)cc1OC` [papaverine, reference compound] showed an LD50 at 192 h of 33.1 mg/kg.
